Data reported in patent US20210052600A1, “THERAPEUTIC AGENTS FOR STRESS URINARY INCONTINENCE AND INCOTINENCE OF FECES” (Takeda Pharmaceutical Company Limited, priority 2017, published 2021).
Where two headings read alike, the source gives them in different places.

What was measured:
[1] = cited from earlier work
anus-closing functions = assay: Rat anus-closing functions (Anal LPP) measured by high speed infusion of saline into the rectum; type: in vivo; conditions: 1 mg/kg i.v.; 5 minutes after administration; mean ± SEM
Description: (§1) Thirty six female SD rats were used. After overnight fasting, rats were intraperitoneally administered with urethane for anesthesia, and isoflurane inhalation was further added during surgery. The abdomen was incised to expose the rectum, and a small incision of the rectum was made. A polyethylene catheter (SP61, Natsume) was inserted into the rectum through the rectum incision, and the tip of the catheter was positioned around 5 mm from the anal orifice. The other end of the catheter was connected with a pressure transducer and an infusion pump via three-way stopcocks, and the change in pressure in the rectum was measured using the pressure transducer, an electric signal amplifier, and an analog-to-digital converter. For administrating drugs, a polyethylene catheter (SP45, Natsume) was inserted into the femoral vein after exposing the vein by small incision.
After recovery period from surgery, while saline was infused at a speed of 0.1 mL/sec into the rectum using an infusion pump, change in the measured pressure—was observed. The infusion was stopped when the leakage of the saline from the anal orifice was observed. In the procedure, sudden decrease in the pressure was observed during the infusion with the leakage of saline from the anal orifice. The peak value of the pressure recorded in the rectum during the course of the procedures was defined as “an Anal LPP” in this Example. […] The Anal LPP was again measured in the same way 5 minutes after drug administration. The difference in Anal LPP from the Pre value (increased amount of Anal LPP) was calculated. Regarding change in Anal LPP before and after drug administration, the differences between the mean values of the drug-treated and vehicle-treated groups were analyzed by the one-tailed Williams' test or Student's t-test.

[2] = cited from earlier work; remark: listed apart in the source
urethral resistance = assay: Rat urethral resistance (LPP) measured by high speed infusion of saline into the bladder; type: in vivo; conditions: for LPP Post / LPP Increase / LPP Pre: Table 8, mean ± SEM; for LPP Post: 30 minutes after administration; for LPP Increase: Post minus Pre; for LPP Pre: before administration
Description: The rats were anesthetized with isoflurane. Their spinal cord was transected at the T8-T9 (the eighth thoracic cord—the ninth thoracic cord) level. After opening of the bladder dome, two polyethylene tubes (PE-100) were inserted into the bladder. The incised portion of the bladder was closed with sutures, and the other incisions were also closed. The rats were placed in Bollman cages. The catheter for intravesical pressure measurement was connected to a pressure transducer, while the catheter for saline filling was connected to a syringe filled with Evans Blue-dyed saline. Change in intravesical pressure was recorded using the pressure transducer via an electric signal amplifier and an analog-to-digital converter. After recovery of the animals from anesthesia, the intravesical pressure measurement was started, and saline was infused at a speed of 0.1 mL/sec into the bladder using an infusion pump. The infusion was stopped when the leakage of the saline from the urethral orifice was observed. Immediately thereafter, the bladder was emptied by releasing the pressure. In this operation, the peak of recorded intravesical pressure during the saline infusion was used as LPP in this Example. This measurement was repeated, and the average LPP from the last three measurements was used as the LPP value of the trial. The mean from 2 such trials was used as a Pre value. 0.5% MC was used as the vehicle. […] The difference in LPP from the Pre value (increased amount of LPP) was calculated. Regarding change in LPP before and after drug administration, the differences between the mean values of the drug-treated and vehicle-treated groups were analyzed by the one-tailed Williams' test.

[3] = Body weight of obese rats (DIO-F344) under continuous subcutaneous administration and effective plasma concentration; type: in vivo, rat; conditions: for Change in body weight (% change): mean ± SEM
Experimental: Forty male DIO-F344 rats bred with high fat diet (42 kcal % fat) were used. On the day before surgery, the rats were grouped on the basis of their body weight. Compound A′ and Compound B′ were each dissolved in saline. Osmotic pumps filled with the Compound A′ or Compound B′ solution were subcutaneously implanted in the rats under isoflurane anesthesia. The body weight just after surgery was used as a Pre value, and the body weight was measured every day until 14 days after surgery. Regarding the averages in the body weight on Day 14, the difference in the mean averages of the drug-treated group and the vehicle-treated group was analyzed by the one-tailed Williams' test.
The average Day 14 plasma concentration from the values of each rat measured in the morning and afternoon was used as a plasma concentration for the animal. The rate of change in body weight was calculated from the values measured just after and 14 days after osmotic pump implantation. The rate (average rate) of change of the vehicle group was subtracted from that of each drug-administered rat to plot the plasma concentration and the change in body weight. The plasma concentration at which the drug lowered the body weight by 3.8% was calculated by linear regression analysis.

[4] = system: urethral resistance increasing effect of Compound A′; assay: Influence of antagonists (SB 242084, methiothepin) on urethral resistance increasing effect of Compound A′ in rats; type: in vivo, rat; conditions: mean ± SEM; for LPP Increase: Post minus Pre; for LPP Pre: before administration
Experimental: Ninety female rats of SD strain were used. […] Isoflurane inhalation was added during the surgery, if necessary. In the experiment with intrathecal administration, the dura mater was exposed by laminectomy and then partially opened by incision, through which a catheter (PE-10) filled with saline was then implanted at the level of the L6-S1 site, followed by the closing of the incision. After opening of the abdomen, a catheter (PE-90) was inserted into the bladder. In order to secure reduced urethral resistance, unilateral nerve to iliococcygeus and pubococcygeus muscles was transected. For intraduodenal administration, another catheter (PE-50) was inserted into the duodenum in advance. The abdominal muscle and skin were each closed with sutures. Two (right and left) sites of abdominal skin near the diaphragm were cut to expose abdominal muscle. The bladder was emptied through the catheter, followed by the injection of 0.2 to 0.3 mL of Evans blue solution. Change in intravesical pressure was recorded using the bladder catheter via a pressure transducer, an electric signal amplifier, and an analog-to-digital converter. While change in intravesical pressure was recorded, the presence or absence of fluid leakage from the urethral orifice was observed under the electrical stimulation of the exposed abdominal muscle using an electrical stimulator and an isolator. […] The peak of the intravesical pressure during the stimulation of the abdominal muscle was measured, and the lowest pressure at which the fluid leakage was observed among the trials was defined as LPP for the electrical abdominal muscle stimulation method. In order to examine whether the urethral resistance increasing effect of Compound A′ is based on its agonistic potency on 5-HT2C receptors, SB 242084, methiothepin, or a vehicle was intravenously administered, and Compound A′ or a vehicle was intraduodenally administered 5 minutes later. SB 242084 was dissolved in a mixed solution of N,N-dimethylacetamide and polyethylene glycol 400 (1:1) and administered at 0.03 mg/0.5 mL/kg, 0.1 mg/0.5 mL/kg and 0.3 mg/0.5 mL/kg. Methiothepin was dissolved in saline and administered at 0.03 mg/0.5 mL/kg. 0.1 mg/0.5 mL/kg and 0.3 mg/0.5 mL/kg. Compound A′ was suspended in 0.5% MC and administered at 3 mg/mL/kg. LPP was measured again 30 minutes after Compound A′ administration. In order to examine where Compound A′ works in the body to increase urethral resistance, the blocking of the effect of Compound A′ was confirmed by blocking the functions of Compound A′ by giving methiothepin at a particular site in the body. Particularly, in the experiment with intrathecal administration, methiothepin or a vehicle was intrathecally administered, and Compound A′ or a vehicle was intraduodenally administered 5 minutes later. Methiothepin was dissolved in saline and 20 μL of the obtained solution was administered. Compound A′ was suspended in 0.5% MC and administered at 3 mg/mL/kg. LPP was measured again 30 minutes after Compound A′ administration.
Regarding change in LPP before and after drug administration, the differences between the mean values of the Compound A′-treated and vehicle-treated groups were analyzed by the Student's t test or the Welch's test. In order to analyze the influence of the antagonists on the effect of Compound A′, the differences between the mean values of the SB 242084- or methiothepin- and Compound A′-administered group and the vehicle- and Compound A′-administered group were analyzed by the one-tailed Williams' test.

[5] = system: anus-closing function increasing effect of Compound A′; assay: Influence of SB 242084 on Compound A′-induced rat anus-closing function increasing effect (Anal LPP); type: in vivo; conditions: SB242084 0.3 mg/kg i.v. then Compound A′ 1 mg/kg i.v.; 5 minutes after Compound A′; n=9
Experimental: as §1, with “Eighteen” for “Thirty six”, “was” for “was further”
After recovery period from surgery, while saline was infused at a speed of 0.1 mL/sec into the rectum using an infusion pump, change in the measured pressure—was observed. […] The peak value of the pressure recorded in the rectum during the course of the procedures was defined as “an Anal LPP” in this Example. […] The Anal LPP was again measured in the same way 5 minutes after the administration with Compound A′. The difference in Anal LPP from the Pre value (increased amount of Anal LPP) was calculated. […]

[6] = SB 242084 0.03 mg/kg i.v. + Compound A′ 3 mg/kg i.d.
[7] = SB 242084 0.1 mg/kg i.v. + Compound A′ 3 mg/kg i.d.
[8] = SB 242084 0.3 mg/kg i.v. + Compound A′ 0 mg/kg i.d.
[9] = SB 242084 0.3 mg/kg i.v. + Compound A′ 3 mg/kg i.d.

SMILES: C[C@H]1CNCCc2ccc(Cl)cc21 [Compound B′, (R)-8-chloro-1-methyl-2,3,4,5-tetrahydro-1H-3-benzazepine]
- half-life in blood ([1]; after a single dose of 10 mg): 11.1 h
- maximum blood concentration ([1]; after a single dose of 10 mg): 46.0 ng/mL
- maximum blood concentration ([1]; immediate release formulation 10 mg once daily (Blossom trial)): 40 ng/mL
- maximum blood concentration (Cmax) ([1]; immediate release formulation 10 mg twice daily (Blossom trial)): 56 ng/mL
- Anal LPP Increase (anus-closing functions): 13.8 ± 5.7 cmH2O
- patients with adverse events ([2]; 10 mg bid group): 57.9%
- subjects with headache ([2]; 10 mg bid group): 32.5%
- subjects with nausea ([2]; 10 mg bid group): 8.8%
- difference of body weight loss from placebo ([2]; 10 mg once daily (QD) (Blossom trial)): 2.6%
- weight loss, difference from placebo group ([2]; obese patients, 10 mg twice daily (Blossom trial)): 3.8%
- LPP Post (urethral resistance; 1 mg/kg p.o.): 77.0 ± 3.6 cm H2O
- LPP Increase (urethral resistance; 1 mg/kg p.o.): 9.0 ± 1.9 cm H2O
- LPP Pre (urethral resistance; 1 mg/kg p.o.): 67.9 ± 2.5 cm H2O
- LPP Post (urethral resistance; 2.5 mg/kg p.o.): 88.1 ± 3.5 cm H2O
- LPP Increase (urethral resistance; 2.5 mg/kg p.o.): 19.6 ± 1.7 cm H2O
- LPP Pre (urethral resistance; 2.5 mg/kg p.o.): 68.5 ± 3.8 cm H2O
- LPP Post (urethral resistance; 5 mg/kg p.o.): 85.4 ±4.1 cm H2O
- LPP Increase (urethral resistance; 5 mg/kg p.o.): 25.1 ± 2.7 cm H2O
- LPP Pre (urethral resistance; 5 mg/kg p.o.): 60.2 ± 5.1 cm H2O
- LPP10, the dose that increases LPP by 10 cm H2O (urethral resistance; oral administration, high speed saline infusion method): 1.2 mg/kg
- Change in body weight (% change) ([3]; 0.45 mg/animal/day s.c. osmotic pump, day 3): −0.9 ± 0.2 % change
- Change in body weight (% change) ([3]; 0.45 mg/animal/day s.c. osmotic pump, day 7): −1.4 ± 0.5 % change
- Change in body weight (% change) ([3]; 0.45 mg/animal/day s.c. osmotic pump, day 10): −3.3 ± 0.4 % change
- Change in body weight (% change) ([3]; 0.45 mg/animal/day s.c. osmotic pump, day 14): −3.7 ± 0.6 % change
- Change in body weight (% change) ([3]; 1.35 mg/animal/day s.c. osmotic pump, day 3): −1.4 ± 0.3 % change
- Change in body weight (% change) ([3]; 1.35 mg/animal/day s.c. osmotic pump, day 7): −2.5 ± 0.5 % change
- Change in body weight (% change) ([3]; 1.35 mg/animal/day s.c. osmotic pump, day 10): −4.6 ± 0.3 % change
- Change in body weight (% change) ([3]; 1.35 mg/animal/day s.c. osmotic pump, day 14): −5.4 ± 0.2 % change
- Change in body weight (% change) ([3]; 4.5 mg/animal/day s.c. osmotic pump, day 3): −3.1 ± 0.6 % change
- Change in body weight (% change) ([3]; 4.5 mg/animal/day s.c. osmotic pump, day 7): −4.8 ± 0.9 % change
- Change in body weight (% change) ([3]; 4.5 mg/animal/day s.c. osmotic pump, day 10): −7.1 ± 0.7 % change
- Change in body weight (% change) ([3]; 4.5 mg/animal/day s.c. osmotic pump, day 14): −8.6 ± 1.0 % change
- plasma concentration at which the drug lowered the body weight by 3.8% ([3]; DIO-F344 rats, day 14, vehicle-subtracted, linear regression analysis): 140 ng/mL

SMILES: Cc1cc2c(cc1Cl)N(C(=O)Nc1ccc(Oc3cccnc3C)nc1)CC2 [SB 242084]
- LPP Post ([4]; SB 242084 0.03 mg/kg i.v. + Compound A′ 3 mg/kg i.d., 30 minutes after Compound A′): 73.9 ± 8.7 cmH2O
- LPP Increase [4, 6]: 29.9 ± 8.4 cmH2O
- LPP Pre [4, 6]: 44.0 ± 7.4 cmH2O
- LPP Post ([4]; SB 242084 0.1 mg/kg i.v. + Compound A′ 3 mg/kg i.d., 30 minutes after Compound A′): 57.6 ± 12.2 cmH2O
- LPP Increase [4, 7]: 12.6 ± 6.3 cmH2O
- LPP Pre [4, 7]: 45.0 ± 6.7 cmH2O
- LPP Post ([4]; SB 242084 0.3 mg/kg i.v. + Compound A′ 0 mg/kg i.d., 30 minutes after i.d. administration): 49.3 ± 8.7 cmH2O
- LPP Increase [4, 8]: 3.4 ± 4.6 cmH2O
- LPP Pre [4, 8]: 45.9 ± 5.4 cmH2O
- LPP Post ([4]; SB 242084 0.3 mg/kg i.v. + Compound A′ 3 mg/kg i.d., 30 minutes after Compound A′): 48.0 ± 6.9 cmH2O
- LPP Increase [4, 9]: 3.8 ± 4.4 cmH2O
- LPP Pre [4, 9]: 44.3 ± 7.0 cmH2O
- Anal LPP Increase [5]: -2.6±4.1 cmH2O
